# Test results published in patent US5707966A, “Antithrombotic agents” (Eli Lilly and Company, priority 1995, dated 1998).
# Counter-ions that a name gives are not always drawn. Like-named read-outs stand apart in the source and are kept apart here.
# Legend:
# Type in all cases: biochemical
# Human Thrombin = Human Thrombin (Homo sapiens, UniProt P00734); test: Inhibition of amidase activity of thrombin (Kass)
# Bovine trypsin = biological target: T1, Bovine trypsin (Bos taurus, UniProt P00760); test: Kass with trypsin, chromogenic substrate; conditions: substrate N-Benzoyl-Phe-Val-Arg-p-nitroanilide
# T1 construct: Bovine trypsin is purchased; purchased Worthington Biochemicals, Freehold, N.J
# T1 sequence (P00760 24-246): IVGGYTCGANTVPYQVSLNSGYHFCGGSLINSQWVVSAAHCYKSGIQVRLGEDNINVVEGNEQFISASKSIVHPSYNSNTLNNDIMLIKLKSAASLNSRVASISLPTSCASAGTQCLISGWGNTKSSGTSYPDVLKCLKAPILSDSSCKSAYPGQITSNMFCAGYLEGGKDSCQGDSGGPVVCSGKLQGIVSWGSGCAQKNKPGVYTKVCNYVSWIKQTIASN
# Protocol: By substantially following the procedures described above for human thrombin, and using other human blood coagulation system serine proteases and proteases of the fibrinolytic system with the appropriate chromogenic substrates, identified below, selectivity of the compounds of the present invention with respect to the coagulation factor serine proteases and with respect to the fibrinolytic system serine proteases are evaluated as well as their substantial lack of interference with serine proteases of the fibrinolytic system. Thrombin inhibitors preferably should spare fibrinolysis induced by urokinase, tissue plasminogen activator (t-PA) and streptokinase. This would be important to the therapeutic use of such agents as an adjunct to streptokinase, t-PA or urokinase thrombolytic therapy and to the use of such agents as an endogenous fibrinolysis-sparing (with respect to t-PA and urokinase) antithrombotic agent. In addition to the lack of interference with the amidase activity of the fibrinolytic proteases, such fibrinolytic system sparing can be studied by the use of human plasma clots and their lysis by the respective fibrinolytic plasminogen activators.
# Human factors X, Xa, IXa, XIa, and XIIa are purchased from Enzyme Research Laboratories, South Bend, Ind.; human urokinase from Leo Pharmaceuticals, Denmark; and recombinant activated Protein C (aPC) is prepared at Eli Lilly and Co. substantially according to U.S. Patent No. 4,981,952. Chromogenic substrates: N-Benzoyl-Ile-Glu-Gly-Arg-p-nitroanilide (for factor Xa); N-Cbz-D-Arg-Gly-Arg-p-nitroanilide (for factor IXa assay as the factor Xa substrate); Pyroglutamyl-Pro-Arg-p-nitroanilide (for Factor XIa and for aPC); H-D-Pro-Phe-Arg-p-nitroanilide (for factor XIIa); and Pyroglutamyl-Gly-Arg-p-nitroanilide (for urokinase); are purchased from KabiVitrum, Stockholm, Sweden, or from Midwest Biotech, Fishers, Ind. Bovine trypsin is purchased from Worthington Biochemicals, Freehold, N.J., and human plasma kallikrein from Kabi Vitrum, Stockholm, Sweden. Chromogenic substrate H-D-Pro-Phe-Arg-p-nitroanilide for plasma kallikrein is purchased from Kabi Vitrum, Stockholm, Sweden. N-Benzoyl-Phe-Val-Arg-p-nitroanilide, the substrate for human thrombin and for trypsin, is synthesized according to procedures described above for the compounds of the present invention, using known methods of peptide coupling from commercially available reactants or purchased from Midwest Biotech, Fishers, Ind.
# Human plasma [1] = test: Human plasma anticoagulation, thrombin time (TT); conditions: concentration required to double the thrombin time, linear extrapolation
# Protocol: (§1) Dog plasma and rat plasma is obtained from conscious mixed-breed hounds (either sex, Hazelton-LRE, Kalamazoo, Mich., U.S.A.) or from anesthetized male Sprague-Dawley rats (Harlan Sprague-Dawley, Inc., Indianapolis, Ind., U.S.A.) by venipuncture into 3.8 percent citrate. Fibrinogen is prepared from in-date ACD human blood as the fraction I-2 according to previous procedures and specifications. […] Human fibrinogen is also purchased as 98 percent pure/plasmin free from American Diagnostica, Greenwich, Conn. Coagulation reagents ACTIN, Thromboplastin, and Human plasma are from Baxter Healthcare Corp., Dade Division, Miami, Fla. Bovine thrombin from Parke-Davis ([…], Mich.) is used for coagulation assays in plasma.
# (§2) Coagulation assay procedures are as previously described. […] A CoAScreener coagulation instrument (American LABor, Inc.) is used for all coagulation assay measurements. The prothrombin time (PT) is measured by adding 0.05 mL saline and 0.05 mL Thromboplastin-C reagent to 0.05 mL test plasma. The activated partial thromboplastin time (APTT) is measured by incubation of 0.05 mL test plasma with 0.05 mL Actin reagent for 120 seconds followed by 0.05 mL CaCl2 (0.02M). The thrombin time (TT) is measured by adding 0.05 mL saline and 0.05 mL thrombin (10 NIH units/mL) to 0.05 mL test plasma. The compounds of Formula I are added to human or animal plasma over a wide range of concentrations to determine prolongation effects on the APTT, PT, and TT assays. Linear extrapolations are performed to estimate the concentrations required to double the clotting time for each assay.
# Human plasma [2] = test: Human plasma anticoagulation, activated partial thromboplastin time (APTT); conditions: concentration required to double the APTT, linear extrapolation
# Protocol: as §1, §2
# Human plasma [3] = test: Human plasma anticoagulation, prothrombin time (PT); conditions: concentration required to double the PT, linear extrapolation
# Protocol: as §1, §2
# [4] = mean over a range of concentrations, […]
SMILES,Kass Human Thrombin (Human Thrombin; [4]),Kass Trypsin (Bovine trypsin),Human Plasma Anticoagulation 2× Clotting time TT (Human plasma [1]),Human Plasma Anticoagulation 2× Clotting time APTT (Human plasma [2]),Human Plasma Anticoagulation 2× Clotting time PT (Human plasma [3]),Kass Human Thrombin (Human Thrombin)
"CCS(=O)(=O)N[C@H](Cc1ccccc1)C(=O)N1CCC[C@H]1C(=O)NCCc1cccc(NC(=N)N)c1 [Example 37, EtSO2 -D-Phe-Pro-m-NHCH2 CH2 C6 H4 NHC(NH)NH2.HCl]",0.02 × 10^6 (L/mole),< 0.009 × 10^6 (L/mole),"> 9,000 ng/mL","> 9,000 ng/mL","> 9,000 ng/mL",–
"Nc1ccc(CCNC(=O)[C@@H]2CCCN2C(=O)[C@@H](CC2CCCCC2)NCC(=O)O)cc1 [Example 63, HO2 CCH2 -D-Cha-Pro-4-NHCH2 CH2 C6 H4 NH2.HCl]",0.31 × 10^6 (L/mole),–,680 ng/mL,–,–,–
"N=C(N)C1CCC(CNC(=O)[C@@H]2CCCN2C(=O)[C@@H](CC2CCCCC2)NCC(=O)O)NC1 (stereo partly drawn) [Example 67, HO2 CCH2 -D-Cha-pro-2-NHCH2-5-amidinopiperidine.HCl]",–,–,34 ng/mL,"1,800 ng/mL","1,300 ng/mL",11
"N=C(N)C1=CNC(CNC(=O)[C@@H]2CCCN2C(=O)[C@@H](CC2CCCCC2)NCC(=O)O)CC1 (stereo partly drawn) [Example 68, HO2 CCH2 -D-Cha-Pro-2-NHCH2 -5-amidino-5,6-dehydro-piperidine.HCl]",600 × 10^6 (L/mole),–,4 ng/mL,49 ng/mL,190 ng/mL,–
"N=C(N)N1CC=C(CNC(=O)[C@@H]2CCCN2C(=O)[C@@H](CC2CCCCC2)NCC(=O)O)CC1 [Example 70, HO2 CCH2 -D-Cha-Pro-4-NHCH2 -1-amidino-3,4-dehydro-piperidine.HCl]",430 × 10^6 (L/mole),9.8 × 10^6 (L/mole),2 ng/mL,160 ng/mL,180 ng/mL,–
"Nc1cc(CCNC(=O)[C@@H]2CCCN2C(=O)[C@@H](CC2CCCCC2)NCC(=O)O)ccn1 [Example 76, HO2 CCH2 -D-Cha-Pro-4-NHCH2 CH2 -2-aminopyridine.HCl]",12 × 10^6 (L/mole),0.36 × 10^6 (L/mole),29 ng/mL,490 ng/mL,560 ng/mL,–
"Nc1ccc(CNC(=O)[C@@H]2CCCN2C(=O)[C@@H](CC2CCCCC2)NCC(=O)O)cc1F [Example 77, HO2 CCH2 -D-Cha-Pro-4-NHCH2 -2-F-aniline.HCl]",–,–,53 ng/mL,"1,600 ng/mL",890 ng/mL,11
"CCS(=O)(=O)N[C@H](CC1CCCCC1)C(=O)N1CCC[C@H]1C(=O)NCc1ccc(N)cc1F [Example 82, EtSO2 -D-Cha-Pro-4-NHCH2 -3-F-C6 H3 NH2.HCl]",5.0 × 10^6 (L/mole),–,130 ng/mL,"3,800 ng/mL","3,000 ng/mL",–

# Continued, in another order:
Kass Human Thrombin (Human Thrombin; [4]),Kass Trypsin (Bovine trypsin),SMILES,Human Plasma Anticoagulation 2× Clotting time TT (Human plasma [1]),Human Plasma Anticoagulation 2× Clotting time APTT (Human plasma [2]),Human Plasma Anticoagulation 2× Clotting time PT (Human plasma [3]),Kass Human Thrombin (Human Thrombin)
7.6 × 10^6 (L/mole),–,"Nc1ccc(CNC(=O)[C@@H]2CCCN2C(=O)[C@@H](CC2CCCCC2)NCC(=O)O)cc1 [Example 62, HO2 CCH2 -D-Cha-Pro-4-NHCH2 C6 H4 NH2.HCl]",54 ng/mL,–,–,–
"4,500 × 10^6 (L/mole)",570 × 10^6 (L/mole),"Cl.N=C(N)c1cc(CNC(=O)[C@@H]2CCCN2C(=O)[C@@H](CC2CCCCC2)NCC(=O)O)cs1 [Example 65, HO2 CCH2 -D-Cha-pro-4-NHCH2-2-amidinothiophene.HCl]",1 ng/mL,48 ng/mL,–,–
120 × 10^6 (L/mole),4.6 × 10^6 (L/mole),"N=C(N)c1ccc(CNC(=O)[C@@H]2CCCN2C(=O)[C@@H](CC2CCCCC2)NCC(=O)O)nc1 [Example 66, HO2 CCH2 -D-Cha-Pro-2-NHCH2 -5-amidinopyridine.HCl]",7.9 ng/mL,180 ng/mL,270 ng/mL,–
340 × 10^6 (L/mole),3.7 × 10^6 (L/mole),"N=C(N)c1ccc(CNC(=O)[C@@H]2CCCN2C(=O)[C@@H](CC2CCCCC2)NCC(=O)O)nn1 [Example 69, HO2 CCH2 -D-Cha-Pro-3-NHCH2 -6-amidinopyridazine.HCl]",5 ng/mL,110 ng/mL,220 ng/mL,–
"1,400 × 10^6 (L/mole)",240 × 10^6 (L/mole),"N=C(N)c1ccc(CNC(=O)[C@@H]2CCCN2C(=O)[C@@H](CC2CCCCC2)NCC(=O)O)c(F)c1 [Example 71, HO2 CCH2 -D-Cha-Pro-4-NHCH2 -3-F-benzamidine.HCl]",1 ng/mL,89 ng/mL,150 ng/mL,–
"2,300 × 10^6 (L/mole)",280 × 10^6 (L/mole),"N=C(N)c1cc(F)c(CNC(=O)[C@@H]2CCCN2C(=O)[C@@H](CC2CCCCC2)NCC(=O)O)c(F)c1 [Example 72, HO2 CCH2 -D-Cha-Pro-4-NHCH2 -3,5-F2 -benzamidine.HCl]",1 ng/mL,160 ng/mL,160 ng/mL,–
28 × 10^6 (L/mole),–,"Nc1cc(CNC(=O)[C@@H]2CCCN2C(=O)[C@@H](CC2CCCCC2)NCC(=O)O)ccn1 [Example 73, HO2 CCH2 -D-Cha-Pro-4-NHCH2 -2-aminopyridine.HCl]",21 ng/mL,340 ng/mL,330 ng/mL,–
29 × 10^6 (L/mole),–,"Nc1ccc(CNC(=O)[C@@H]2CCCN2C(=O)[C@@H](CC2CCCCC2)NCC(=O)O)cn1 [Example 74, HO2 CCH2 -D-Cha-Pro-5-NHCH2 -2-aminopyridine.HCl]",20 ng/mL,420 ng/mL,350 ng/mL,–
0.45 × 10^6 (L/mole),–,"Nc1ccc(CCNC(=O)[C@@H]2CCCN2C(=O)[C@@H](CC2CCCCC2)NCC(=O)O)cn1 [Example 75, HO2 CCH2 -D-Cha-Pro-5-NHCH2 CH2 -2-aminopyridine.HCl]",–,–,–,–
